In patent publication US11642316B2, “Water-soluble curcumin mixture with high bioavailability and preparation method and application thereof” (HENAN ZHONGDA HENGYUAN BIOTECHNOLOGY STOCK CO., LTD., priority 2021, dated 2023):

Test: Bioavailability test of water-soluble curcumin mixture in rats (plasma, HPLC-MS/MS)
Type: in vivo
Details: intragastric administration, 200 mg·kg^−1 calculated as curcumin, plasma 0.167-12 h
Excerpt: After experimental testing in rats, the bioavailability test method of water-soluble curcumin mixture was verified according to the “Guidelines for Validation of 9012 Biological Sample Quantitative Analysis Method” in the fourth appendix of the Pharmacopoeia of the People's Republic of China (2015 Edition). Specific steps are as follows:
24 Healthy SD (spontaneous mutant Danforth's short tail) rats were randomly divided into 4 groups (6 in each group) after being adaptively reared for one week;
In each group, about 0.3 mL of blood was collected from the orbit at 0.167, 0.5, 1, 1.5, 2, 3, 5, 8 and 12 hours after administration, and centrifuged at 4000 rpm for 10 minutes. The plasma was stored at −20° C. for later use.
Separating 100 μL of plasma, adding 0.3 mL of ethyl acetate, mixing for 2 min, centrifuging at 4000 rpm for 10 min, and separating the supernatant; adding 0.3 mL of ethyl acetate to the precipitate, mixing for 2 min, and centrifuging at 4000 rpm for 10 min, vacuum drying at 40° C. Adding 100 μL of methanol to the residue, wetting the centrifuge tube, mixing for 2 min, filtering with 0.22 μm microporous membrane, analyzing and testing.
HPLC-MS/MS with emodin as the internal standard was used for detection, and DAS2.0 software was used to calculate the pharmacokinetic parameters and compare the relative bioavailability.

**Q.** Which results are given for `COc1cc(/C=C/C(=O)CC(=O)/C=C/c2ccc(O)c(OC)c2)ccc1O` [curcumin]?
**A.** AUC (012 h) (SD rats): 140.36 ng·h/mL; AUC(0-t) (SD, rat, plasma, po, 200 mg/kg, read-out: AUC (012 h)): 108 ng·h/mL
